Target: Protease (Human immunodeficiency virus 1, UniProt Q9YQ12)
Sequence (Q9YQ12 whole entry): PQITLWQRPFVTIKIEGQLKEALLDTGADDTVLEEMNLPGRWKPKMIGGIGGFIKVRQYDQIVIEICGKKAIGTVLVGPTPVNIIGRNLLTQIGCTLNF

**Q.** With Nc1ncnc2c1ncn2CCOCP(=O)(O)O [ADEFOVIR] as the compound, how does the EC50 read?
**A.** The EC50 was 16 µM.

From ChEMBL document CHEMBL5725610, “Phosphonate compounds” (2018)
